# Results as given in patent publication US20260217701A1, “SELECTIVE BET INHIBITORS AND USES THEREOF” (Tay Therapeutics Limited, priority 2022, published 2026).
# Legend:
# [1] = target: T1, BRD4 BD1 (Homo sapiens, UniProt O60885); assay: NanoBRET bromodomain assay, NanoLuc-BRD4-BD1 in HEK293 cells; format: binding
# T1 construct: HEK293 cells were transfected using NanoLuc-BRD4-BD1 or NanoLuc-BRD4-BD2 fusion vectors
# Procedure: Exemplary compounds of the disclosure are active against BRD4 BD2 and selective over BRD4 BD1. BRD4 is a representative example of the BET family, as the binding sites of all BET family members are structurally similar. […] IC50s and fold selectivity's are determined as described below and are represented in Table 1.
# (§1) Plates were then incubated at 37° C.+5% CO2 incubator for 2 hours.
# (§2) Fold Selectivity Calculated (IC50 BD1/IC50 BD2).
# [2] = target: T2, BRD4 BD2 (Homo sapiens, UniProt O60885); assay: NanoBRET bromodomain assay, NanoLuc-BRD4-BD2 in HEK293 cells; format: binding; settings: for Fold Selectivity BRD4 BD1/BD2: IC50 BD1/IC50 BD2, qualitative if an IC50 is at the upper limit
# T2 construct: HEK293 cells were transfected using NanoLuc-BRD4-BD1 or NanoLuc-BRD4-BD2 fusion vectors
# Procedure: as §1, §2
IC50 [1] [nM],IC50 [2] [nM],Fold Selectivity BRD4 BD1/BD2 [2],SMILES
> 1000,10 to 50,xxx (Fold >200 and ≤1000),Cn1cc(-c2ccccc2)c(-c2cn(C)c(=O)c3[nH]c(-c4cccc(F)c4F)cc23)cc1=O [Example 90]
> 1000,50 to 200,xx (Fold >50 and ≤200),Cn1ccc(-c2cc3c(-c4cc(=O)n(C)cc4-c4ccccc4)cn(C)c(=O)c3[nH]2)cc1=O [Example 81]
> 1000,10 to 50,xxx (Fold >200 and ≤1000),"Cn1cc(-c2ccccc2)c(-c2cn(C)c(=O)c3[nH]c(-c4cccn(C)c4=O)cc23)cc1=O [Example 1, 6-methyl-2-(1-methyl-2-oxo-1,2-dihydropyridin-3-yl)-4-(1-methyl-2-oxo-5-phenyl-1,2-dihydropyridin-4-yl)-1,6-dihydro-7H-pyrrolo[2,3-c]pyridin-7-one]"
> 1000,< 10,xxxx (Fold >1000),"Cn1cc(-c2cc(=O)n(C3CC3)cc2-c2ccccc2)c2cc(-c3ccccc3F)[nH]c2c1=O [Example 47, 4-(1-cyclopropyl-2-oxo-5-phenyl-1,2-dihydropyridin-4-yl)-2-(2-fluorophenyl)-6-methyl-1,6-dihydro-7H-pyrrolo[2,3-c]pyridin-7-one]"
500 to 1000,< 10,xxx (Fold >200 and ≤1000),Cn1cc(-c2ccccc2)c(-c2cn(C)c(=O)c3[nH]c(-c4ccc(F)c(C(C)(C)O)c4)cc23)cc1=O [Example 69]
> 1000,200 to 1000,x (Fold >2 and ≤50),CC(C)n1cc(-c2cc3c(-c4cc(=O)n(C)cc4-c4cccc(OCCO)c4)cn(C)c(=O)c3[nH]2)cn1 [Example 75]
> 1000,50 to 200,xx (Fold >50 and ≤200),Cn1cc(-c2cccc(CS(C)(=O)=O)c2)c(-c2cn(C)c(=O)c3[nH]c(-c4ccc(F)cc4F)cc23)cc1=O [Example 77]
> 1000,< 10,xxxx (Fold >1000),"Cn1cc(-c2ccccc2)c(-c2cn(C)c(=O)c3[nH]c(-c4ccc(F)cc4F)cc23)cc1=O [Example 43, 2-(2,4-difluorophenyl)-6-methyl-4-(1-methyl-2-oxo-5-phenyl-1,2-dihydropyridin-4-yl)-1,6-dihydro-7H-pyrrolo[2,3-c]pyridin-7-one]"
50 to 500,< 10,xx (Fold >50 and ≤200),Cn1cc(-c2ccccc2)c(-c2cn(C)c(=O)c3[nH]c(-c4cccnc4)cc23)cc1=O [Example 80]
> 1000,10 to 50,xxx (Fold >200 and ≤1000),"Cn1cc(-c2cccc(C3COC3)c2)c(-c2cn(C)c(=O)c3[nH]c(-c4ccc(F)cc4F)cc23)cc1=O [Example 35, 2-(2,4-difluorophenyl)-6-methyl-4-(1-methyl-5-(3-(oxetan-3-yl)phenyl)-2-oxo-1,2-dihydropyridin-4-yl)-1,6-dihydro-7H-pyrrolo[2,3-c]pyridin-7-one]"
> 1000,< 10,xxxx (Fold >1000),"Cn1cc(-c2ccccc2)c(-c2cn(C)c(=O)c3[nH]c(-c4ccc(S(C)(=O)=O)cc4)cc23)cc1=O [Example 45, 6-methyl-4-(1-methyl-2-oxo-5-phenyl-1,2-dihydropyridin-4-yl)-2-(4-(methylsulfonyl)phenyl)-1,6-dihydro-7H-pyrrolo[2,3-c]pyridin-7-one]"

# The next lines start with the compound.
SMILES,IC50 [1] [nM],IC50 [2] [nM],Fold Selectivity BRD4 BD1/BD2 [2]
"Cc1cc(-c2cc3c(-c4cc(=O)n(C)cc4-c4ccc5c(c4)COC5)cn(C)c(=O)c3[nH]2)cc(C)n1.Cl [Example 33, 4-(5-(1,3-dihydroisobenzofuran-5-yl)-1-methyl-2-oxo-1,2-dihydropyridin-4-yl)-2-(2,6-dimethylpyridin-4-yl)-6-methyl-1,6-dihydro-7H-pyrrolo[2,3-c]pyridin-7-one hydrochloride]",> 1000,< 10,xxxx (Fold >1000)
"Cc1cccc(C)c1Oc1cn(C)c(=O)cc1-c1cn(C)c(=O)c2[nH]c(-c3cccc(CO)c3F)cc12 [Example 57, 4-(5-(2,6-dimethylphenoxy)-1-methyl-2-oxo-1,2-dihydropyridin-4-yl)-2-(2-fluoro-3-(hydroxymethyl)phenyl)-6-methyl-1,6-dihydro-7H-pyrrolo[2,3-c]pyridin-7-one]",> 1000,< 10,xxxx (Fold >1000)
Cc1cccc(C)c1Oc1cn(C)c(=O)cc1-c1cn(C)c(=O)c2[nH]c(-c3cc(CO)ccc3F)cc12 [Example 92],> 1000,10 to 50,xxx (Fold >200 and ≤1000)
"Cc1cccc(C)c1Oc1cn(C)c(=O)cc1-c1cn(C)c(=O)c2[nH]c(-c3cnn(CC(F)(F)F)c3C)cc12 [Example 16, 4-(5-(2,6-dimethylphenoxy)-1-methyl-2-oxo-1,2-dihydropyridin-4-yl)-6-methyl-2-(5-methyl-1-(2,2,2-trifluoroethyl)-1H-pyrazol-4-yl)-1,6-dihydro-7H-pyrrolo[2,3-c]pyridin-7-one]",> 1000,< 10,xx (Fold >50 and ≤200)
"CN1CCC(n2cc(-c3ccccc3)c(-c3cn(C)c(=O)c4[nH]c(-c5cnn(C(F)(F)F)c5)cc34)cc2=O)CC1 [Example 63, 6-methyl-4-(1-(1-methylpiperidin-4-yl)-2-oxo-5-phenyl-1,2-dihydropyridin-4-yl)-2-(1-(trifluoromethyl)-1H-pyrazol-4-yl)-1,6-dihydro-7H-pyrrolo[2,3-c]pyridin-7-one]",500 to 1000,< 10,xx (Fold >50 and ≤200)
"Cn1cc(-c2cc(=O)n(C3CC(O)C3)cc2-c2ccccc2)c2cc(-c3cnn(C(F)(F)F)c3)[nH]c2c1=O (stereo not drawn) [Example 64, 4-(1-(3-hydroxycyclobutyl)-2-oxo-5-phenyl-1,2-dihydropyridin-4-yl)-6-methyl-2-(1-(trifluoromethyl)-1H-pyrazol-4-yl)-1,6-dihydro-7H-pyrrolo[2,3-c]pyridin-7-one]",500 to 1000,50 to 200,x (Fold >2 and ≤50)
"CCCn1cc(-c2cc3c(-c4cc(=O)n(C)cc4Oc4c(C)cccc4C)cn(C)c(=O)c3[nH]2)cn1 [Example 41, 4-(5-(2,6-dimethylphenoxy)-1-methyl-2-oxo-1,2-dihydropyridin-4-yl)-6-methyl-2-(1-propyl-1H-pyrazol-4-yl)-1,6-dihydro-7H-pyrrolo[2,3-c]pyridin-7-one]",> 1000,< 10,xxxx (Fold >1000)
CC(C)n1cc(-c2cc3c(-c4cc(=O)n(C)cc4-c4cccc(CS(C)(=O)=O)c4)cn(C)c(=O)c3[nH]2)cn1 [Example 72],> 1000,200 to 1000,x (Fold >2 and ≤50)
"COCCOc1ccc(-c2cn(C)c(=O)cc2-c2cn(C)c(=O)c3[nH]c(-c4cnn(C(F)(F)F)c4)cc23)cc1 [Example 9, 4-(5-(4-(2-methoxyethoxy)phenyl)-1-methyl-2-oxo-1,2-dihydropyridin-4-yl)-6-methyl-2-(1-(trifluoromethyl)-1H-pyrazol-4-yl)-1,6-dihydro-7H-pyrrolo[2,3-c]pyridin-7-one]",> 1000,< 10,xxxx (Fold >1000)
"Cc1cccc(C)c1Oc1cn(C)c(=O)cc1-c1cn(C)c(=O)c2[nH]c(-c3cc(F)cc(F)c3F)cc12 [Example 55, 4-(5-(2,6-dimethylphenoxy)-1-methyl-2-oxo-1,2-dihydropyridin-4-yl)-6-methyl-2-(2,3,5-trifluorophenyl)-1,6-dihydro-7H-pyrrolo[2,3-c]pyridin-7-one]",> 1000,< 10,xxxx (Fold >1000)
"Cc1cccc(C)c1Oc1cn(C)c(=O)cc1-c1cn(C)c(=O)c2[nH]c(-c3cnn(C(F)(F)F)c3)cc12 [Example 11, 4-(5-(2,6-dimethylphenoxy)-1-methyl-2-oxo-1,2-dihydropyridin-4-yl)-6-methyl-2-(1-(trifluoromethyl)-1H-pyrazol-4-yl)-1,6-dihydro-7H-pyrrolo[2,3-c]pyridin-7-one]",> 1000,< 10,xxxx (Fold >1000)
"Cn1cc(-c2ccc(COC(F)(F)F)cc2)c(-c2cn(C)c(=O)c3[nH]c(-c4cnn(C(F)(F)F)c4)cc23)cc1=O [Example 18, 6-methyl-4-(1-methyl-2-oxo-5-(4-((trifluoromethoxy)methyl)phenyl)-1,2-dihydropyridin-4-yl)-2-(1-(trifluoromethyl)-1H-pyrazol-4-yl)-1,6-dihydro-7H-pyrrolo[2,3-c]pyridin-7-one]",> 1000,< 10,xxxx (Fold >1000)
Cc1cccc(C)c1Oc1cn(C)c(=O)cc1-c1cn(C)c(=O)c2[nH]c(-c3cccc(C(F)(F)F)c3F)cc12 [Example 98],> 1000,50 to 200,xx (Fold >50 and ≤200)
"Cc1c(-c2cnn(C(F)(F)F)c2)[nH]c2c(=O)n(C)cc(-c3cc(=O)n(C)cc3-c3ccccc3)c12 [Example 20, 3,6-dimethyl-4-(1-methyl-2-oxo-5-phenyl-1,2-dihydropyridin-4-yl)-2-(1-(trifluoromethyl)-1H-pyrazol-4-yl)-1,6-dihydro-7H-pyrrolo[2,3-c]pyridin-7-one]",> 1000,10 to 50,xxx (Fold >200 and ≤1000)
